The values below are quoted from earlier work in patent US20060073224A1, “Method of preparing Dioscorea tincture and uses thereof” (Omni Research Technology, priority 2004, published 2006).

The conditions of this data set: purified crystalline powder.

`C[C@@H]1CC[C@@]2(OC1)O[C@H]1C[C@H]3[C@@H]4CC=C5C[C@@H](O)CC[C@]5(C)[C@H]4CC[C@]3(C)[C@H]1[C@@H]2C` [diosgenin]: the insolubility in alcohol result is recorded as “about 0.2%”.
